Test results: BindingDB's records for patent US20240343694 (Korea Reserarch Institute of Chemical Technology, 2024)

Tests used:
[1] = target: T1, Epidermal growth factor receptor [DEL746-750] (Homo sapiens, UniProt P00533); test: Inhibitory Activity of Compounds Against EGFR Mutant Enzyme
T1 construct: gene EGFR
Description: (§1) The activity of the compounds of the present invention against EGFR mutant enzymes was measured using the HTRF system purchased from Cisbio as follows. For an EGFR mutant enzyme, the EGFR del19 enzyme was a recombinant protein purchased from Carna Biosciences, and the EGFR A763_Y764insFHEA enzyme was a recombinant protein purchased from SignalChem, respectively.The composition of the assay buffer used for activity measurement was 50 mM tris-HCl pH 7.5, 100 mM NaCl, 7.5 mM MgCl2, 3 mM KCl, 0.01% tween 20, 0.1% BSA, and 1 mM DTT. An enzymatic reaction was performed using a peptide substrate labeled with ATP at a concentration of […] and biotin at a concentration of […]. The analysis of the inhibitory effect of the compounds on EGFR activity was performed according to the following method.Component 1:4 μL of EGFR mutant enzymeComponent 2:2 μL of compound solutionComponent 3:4 μL of ATP and a biotin labeled peptideThe enzyme reaction begins by first mixing component 1 and component 2 and then adding component 3 thereto. After the reaction at 37° C. for 2 hours, […] of a measurement solution consisting of streptavidin-XL665 and a europium-labeled anti-phosphotyrosine antibody purchased from Cisbio was added to the enzyme reaction solution and reacted at room temperature for 1 hour. Finally, the ratio of fluorescence values at 615 nm and 665 nm was measured using Perkin-Elmer's Envision instrument to calculate enzyme activity and confirm the inhibitory ability of the compounds.

[2] = target: T2, Epidermal growth factor receptor [1-763,'FHEA',764-1210] (UniProt P00533); test: as above
T2 construct: 1-763,'FHEA',764-1210
T2 sequence (P00533 with tags, fused parts or gaps INS763FHEA limits assumed): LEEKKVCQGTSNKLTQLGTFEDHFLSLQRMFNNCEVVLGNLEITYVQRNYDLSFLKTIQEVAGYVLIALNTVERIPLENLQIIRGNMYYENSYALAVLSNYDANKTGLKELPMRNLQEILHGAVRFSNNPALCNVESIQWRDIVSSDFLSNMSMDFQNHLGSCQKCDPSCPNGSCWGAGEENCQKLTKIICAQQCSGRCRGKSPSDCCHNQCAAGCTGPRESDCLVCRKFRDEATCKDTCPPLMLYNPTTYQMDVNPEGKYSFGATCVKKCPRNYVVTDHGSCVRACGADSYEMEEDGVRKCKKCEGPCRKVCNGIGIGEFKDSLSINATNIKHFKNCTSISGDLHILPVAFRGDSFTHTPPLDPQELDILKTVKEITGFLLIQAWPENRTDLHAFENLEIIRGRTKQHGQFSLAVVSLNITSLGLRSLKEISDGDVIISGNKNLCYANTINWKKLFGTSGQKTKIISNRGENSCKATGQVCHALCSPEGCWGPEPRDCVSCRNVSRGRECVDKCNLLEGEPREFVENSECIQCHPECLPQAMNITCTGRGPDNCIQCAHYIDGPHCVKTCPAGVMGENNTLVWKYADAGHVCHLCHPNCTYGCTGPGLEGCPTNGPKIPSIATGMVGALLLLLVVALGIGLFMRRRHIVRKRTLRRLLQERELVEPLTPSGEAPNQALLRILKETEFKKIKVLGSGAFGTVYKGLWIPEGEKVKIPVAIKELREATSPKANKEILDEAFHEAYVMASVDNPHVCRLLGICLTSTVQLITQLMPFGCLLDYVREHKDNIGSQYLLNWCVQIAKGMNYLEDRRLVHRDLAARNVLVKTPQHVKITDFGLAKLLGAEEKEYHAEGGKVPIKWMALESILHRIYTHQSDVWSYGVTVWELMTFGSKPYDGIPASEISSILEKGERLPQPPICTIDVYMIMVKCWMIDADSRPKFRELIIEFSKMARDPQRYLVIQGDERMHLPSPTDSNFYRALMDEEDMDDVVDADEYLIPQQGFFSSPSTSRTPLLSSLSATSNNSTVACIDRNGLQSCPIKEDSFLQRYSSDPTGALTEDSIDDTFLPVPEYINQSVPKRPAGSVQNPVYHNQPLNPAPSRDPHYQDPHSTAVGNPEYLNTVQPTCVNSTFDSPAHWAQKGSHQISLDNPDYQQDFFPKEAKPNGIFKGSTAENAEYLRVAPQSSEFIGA
Description: as §1

[3] = target: T3, Receptor tyrosine-protein kinase erbB-2 [1-775,'YVMA',776-1255] (Homo sapiens, UniProt P04626); test: Inhibitory Activity of Compounds Against HER2 A775_G776insYVMA mutant enzyme
T3 construct: 1-775,'YVMA',776-1255
T3 sequence (P04626 with tags, fused parts or gaps INS775YVMA limits assumed): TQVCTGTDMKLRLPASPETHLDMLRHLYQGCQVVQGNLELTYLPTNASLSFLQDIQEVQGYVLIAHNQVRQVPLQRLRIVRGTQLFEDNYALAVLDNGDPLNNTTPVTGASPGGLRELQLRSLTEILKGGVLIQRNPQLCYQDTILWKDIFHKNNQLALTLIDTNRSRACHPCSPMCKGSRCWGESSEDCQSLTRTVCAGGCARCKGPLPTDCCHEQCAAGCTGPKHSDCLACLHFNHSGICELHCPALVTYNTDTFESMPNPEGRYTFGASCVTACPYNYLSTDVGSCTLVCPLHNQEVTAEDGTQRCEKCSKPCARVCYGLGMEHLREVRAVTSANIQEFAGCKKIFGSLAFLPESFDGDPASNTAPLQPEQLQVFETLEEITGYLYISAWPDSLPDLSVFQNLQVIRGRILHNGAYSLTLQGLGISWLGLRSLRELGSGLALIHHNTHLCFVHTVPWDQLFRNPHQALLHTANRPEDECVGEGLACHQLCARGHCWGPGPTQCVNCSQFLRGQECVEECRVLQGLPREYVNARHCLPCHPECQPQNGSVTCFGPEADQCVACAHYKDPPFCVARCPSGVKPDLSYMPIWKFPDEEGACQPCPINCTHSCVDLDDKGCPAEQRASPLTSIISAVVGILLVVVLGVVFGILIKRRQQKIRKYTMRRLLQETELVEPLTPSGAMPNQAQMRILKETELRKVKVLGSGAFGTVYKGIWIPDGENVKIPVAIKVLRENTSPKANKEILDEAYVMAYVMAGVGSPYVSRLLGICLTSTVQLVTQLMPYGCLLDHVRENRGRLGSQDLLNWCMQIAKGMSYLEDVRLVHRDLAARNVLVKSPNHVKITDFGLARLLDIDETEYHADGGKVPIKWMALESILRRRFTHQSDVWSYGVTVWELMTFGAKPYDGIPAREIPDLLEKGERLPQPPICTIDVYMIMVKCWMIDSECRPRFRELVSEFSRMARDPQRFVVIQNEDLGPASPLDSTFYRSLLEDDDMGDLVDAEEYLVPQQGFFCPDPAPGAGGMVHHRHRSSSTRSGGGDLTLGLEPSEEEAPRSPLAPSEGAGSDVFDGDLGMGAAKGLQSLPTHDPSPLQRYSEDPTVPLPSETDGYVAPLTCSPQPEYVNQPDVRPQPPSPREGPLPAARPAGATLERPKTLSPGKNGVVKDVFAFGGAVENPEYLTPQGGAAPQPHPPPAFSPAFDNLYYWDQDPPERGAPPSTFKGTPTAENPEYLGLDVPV
Description: The activity of the compounds of the present invention against HER mutant enzymes was measured using the HTRF system purchased by Cisbio as follows. As a HER2 mutant enzyme, the HER2 A775_G776insYVMA mutant enzyme was used by purchasing a recombinant protein provided by Carna Biosciences.The composition of the assay buffer used for activity measurement was 50 mM tris-HCl pH 7.5, 100 mM NaCl, 7.5 mM MgCl2, 3 mM KCl, 0.01% tween 20, 0.1% BSA, and 1 mM DTT. In addition thereto, the enzymatic reaction was performed using a peptide substrate labeled with ATP at a concentration of […] and biotin at a concentration of […]. The analysis of the activity inhibitory effect of the compounds on HER2 A775_G776insYVMA mutation was performed according to the following method.Component 1:4 μL of HER2 A775_G776insYVMA mutant enzymeComponent 2:2 μL of compound solutionComponent 3:4 μL of ATP and a biotin labeled peptideThe enzyme reaction begins by first mixing component 1 and component 2 and then adding component 3 thereto. After the reaction at 37° C. for 2 hours, […] of a measurement solution consisting of streptavidin-XL665 and a europium-labeled anti-phosphotyrosine antibody purchased from Cisbio was added to the enzyme reaction solution and reacted at room temperature for 1 hour. Finally, the ratio of fluorescence values at 615 nm and 665 nm was measured using Perkin-Elmer's Envision equipment to calculate enzyme activity and confirm the inhibitory ability of the compounds.

T1 sequence (P00533 with tags, fused parts or gaps DEL746-750 limits assumed, stated change not applied): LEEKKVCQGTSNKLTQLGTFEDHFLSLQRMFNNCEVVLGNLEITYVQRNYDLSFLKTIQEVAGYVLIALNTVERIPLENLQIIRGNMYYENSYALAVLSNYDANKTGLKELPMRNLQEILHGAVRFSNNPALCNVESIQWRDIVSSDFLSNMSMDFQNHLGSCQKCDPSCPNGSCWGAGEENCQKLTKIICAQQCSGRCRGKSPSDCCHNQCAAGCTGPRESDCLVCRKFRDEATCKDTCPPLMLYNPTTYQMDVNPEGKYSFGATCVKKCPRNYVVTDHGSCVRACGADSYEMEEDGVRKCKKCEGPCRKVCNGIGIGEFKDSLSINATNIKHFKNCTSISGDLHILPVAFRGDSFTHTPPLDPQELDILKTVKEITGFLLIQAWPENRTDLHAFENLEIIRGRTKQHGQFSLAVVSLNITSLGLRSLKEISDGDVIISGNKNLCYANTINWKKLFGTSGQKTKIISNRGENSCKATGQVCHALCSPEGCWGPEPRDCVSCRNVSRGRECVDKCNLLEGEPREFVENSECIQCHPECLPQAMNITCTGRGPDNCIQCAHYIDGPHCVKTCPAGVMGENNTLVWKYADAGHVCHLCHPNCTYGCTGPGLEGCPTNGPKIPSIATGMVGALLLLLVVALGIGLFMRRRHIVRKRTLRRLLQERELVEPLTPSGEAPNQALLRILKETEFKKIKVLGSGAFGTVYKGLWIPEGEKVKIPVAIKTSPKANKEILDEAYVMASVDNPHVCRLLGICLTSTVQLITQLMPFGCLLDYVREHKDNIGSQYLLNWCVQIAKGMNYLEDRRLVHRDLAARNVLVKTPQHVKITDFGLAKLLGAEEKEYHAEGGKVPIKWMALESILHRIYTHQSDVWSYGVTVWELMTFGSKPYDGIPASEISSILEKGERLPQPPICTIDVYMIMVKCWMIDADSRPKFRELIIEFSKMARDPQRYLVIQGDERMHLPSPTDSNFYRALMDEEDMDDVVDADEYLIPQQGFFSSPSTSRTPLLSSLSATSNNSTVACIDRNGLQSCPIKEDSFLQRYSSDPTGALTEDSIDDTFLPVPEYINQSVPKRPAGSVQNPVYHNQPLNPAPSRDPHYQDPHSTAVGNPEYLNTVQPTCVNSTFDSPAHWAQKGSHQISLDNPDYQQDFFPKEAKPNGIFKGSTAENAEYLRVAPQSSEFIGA

| IC50 [1] | IC50 [2] | IC50 [3] | Compound |
| --- | --- | --- | --- |
| < 1 nM | < 1 nM | < 1 nM | C=CC(=O)Nc1cc(N)c(OC)cc1OCCN1CCCCC1 [US20240343694, Example 81] |
| < 1 nM | < 1 nM | 2 nM | O=S1(=O)CCCN1c1ccccc1Nc1nc(Cl)ncc1Cl [US20240343694, Example 77] |
| < 1 nM | < 1 nM | 1 nM | C=CC(=O)Nc1cc(N)c(OC)cc1N(C)CCN1CCN(C)CC1 [US20240343694, Example 79] |
| < 1 nM | 2 nM | 14 nM | CC(=O)N(C)c1c(C)cccc1Nc1nc(Cl)ncc1Cl [US20240343694, Example 88] |
| < 1 nM | < 1 nM | 15 nM | CS(=O)(=O)N1CCc2cccc(Nc3nc(Cl)ncc3Cl)c21 [US20240343694, Example 65] |
| < 1 nM | < 1 nM | 20 nM | C=CC(=O)Nc1cc(N)c(OC)cc1N1CCC(N(C)C)CC1 [US20240343694, Example 59] |
| 20 nM | 77 nM | 479 nM | CC(=O)Nc1c(C)cccc1Nc1nc(Cl)ncc1Cl [US20240343694, Example 89] |
| < 1 nM | 5 nM | 61 nM | C=CC(=O)Nc1cc(N)c(OC)cc1OCCN(C)C [US20240343694, Example 71] |
| < 1 nM | < 1 nM | 1 nM | COC(=O)c1cnc(Cl)nc1Nc1cccc2c1N(S(C)(=O)=O)CCC2 [US20240343694, Example 61] |
|  |  | 3 nM | CC(C)OC(=O)c1cnc(Cl)nc1Nc1cccc2c1N(S(C)(=O)=O)CCC2 [US20240343694, Example 62] |
|  |  | < 1 nM | C=CC(=O)Nc1cc(N)c(OC)cc1N(C)CCN1CCOCC1 [US20240343694, Example 63] |

Second part, the compound before the results:

| Compound | IC50 [1] | IC50 [2] | IC50 [3] |
| --- | --- | --- | --- |
| CS(=O)(=O)Nc1c(Cl)cccc1Nc1nc(Cl)ncc1Cl [US20240343694, Example 44] | < 1 nM | < 1 nM | 6 nM |
| Cc1ccc(S(=O)(=O)Nc2ccccc2Nc2nc(Cl)ncc2C)cc1 [US20240343694, Example 25] | < 1 nM | < 1 nM | 6 nM |
| Cc1ccc(Nc2nc(Cl)ncc2Cl)c(NS(C)(=O)=O)c1 [US20240343694, Example 56] | < 1 nM | < 1 nM | < 1 nM |
| CCCS(=O)(=O)Nc1ccccc1Nc1nc(Cl)ncc1C [US20240343694, Example 26] | 4 nM | 200 nM | 80 nM |
| CCN(c1ccccc1Nc1nc(Cl)ncc1Cl)S(=O)(=O)CC [US20240343694, Example 43] | < 1 nM | < 1 nM | 8 nM |
| Cc1cnc(Cl)nc1Nc1ccccc1NS(C)(=O)=O [US20240343694, Example 24] | < 1 nM | 3 nM | 27 nM |
| CCN(c1c(C)cccc1Nc1nc(Cl)ncc1Cl)S(C)(=O)=O [US20240343694, Example 49] | 0.1 nM | 10 nM | 60 nM |
| CS(=O)(=O)N1CCCc2cccc(Nc3nc(Cl)ncc3Cl)c21 [US20240343694, Example 57] | < 1 nM | < 1 nM | < 1 nM |
| CCc1cccc(Nc2nc(Cl)ncc2Cl)c1N(C)S(C)(=O)=O [US20240343694, Example 51] | < 1 nM | < 1 nM | 30 nM |
| CCS(=O)(=O)Nc1ccccc1Nc1nc(Cl)ncc1C [US20240343694, Example 27] | 3 nM | 9 nM | 30 nM |
| C=CC(=O)Nc1cc(N)c(OC)cc1OCCN1CCCC1 [US20240343694, Example 30] | < 1 nM | < 1 nM | 4 nM |
| Cc1cnc(Cl)nc1Nc1ccccc1NS(=O)(=O)c1ccccc1 [US20240343694, Example 28] | < 1 nM | 8 nM | 70 nM |
| Cc1ccc(Nc2nc(Cl)ncc2Cl)c(N(C)S(C)(=O)=O)c1C [US20240343694, Example 53] |  |  | 10 nM |
